Holding throughout (experiment): ≥ marks a high value that may be exact or a test limit, other limits are often not marked, values filed in µg/mL are converted to µM
Assay [1] has as its system Staphylococcus aureus MR.
Assay [2] concerns Enterococcus faecalis.
For assay [3], the system named is Bacillus subtilis KCTC 3068.
The subject of assay [4] is Enterococcus faecium VR.
Assay [5] concerns Staphylococcus aureus KCTC 1621.
Assay [6] deals with Salmonella typhimurium KCTC 1926.
In assay [7] the test system is Enterococcus faecalis VR.
The test system of assay [8] is Enterococcus faecium.
Assay [9] has as its system Pseudomonas aeruginosa KCTC 1637.
Assay [10] deals with Staphylococcus epidermidis KCTC 1917.
Assay [11] concerns Escherichia coli KCTC 1682.
Assay [12] has as its system Bacillus subtilis ATCC 6633.
For assay [13], the system named is Escherichia coli KpC+002101123.
The subject of assay [14] is Proteus mirabilis ATCC 25933.
Assay [15] concerns Enterococcus faecalis ATCC 12953.
For assay [16], the system named is Klebsiella pneumoniae KpC+001825971.
The subject of assay [17] is Klebsiella pneumoniae ATCC 13885.
Assay [18] concerns Escherichia coli ATCC 8739.
In assay [19] the test system is Pseudomonas aeruginosa ATCC 15442.
Assay [20] has as its system Staphylococcus aureus ATCC 29213.
The subject of assay [21] is Streptococcus pyogenes ATCC 19615.
In assay [22] the test system is Staphylococcus aureus ATCC 33591.
For assay [23], the system named is Salmonella enterica subsp. enterica serovar Typhimurium ATCC 14028.
The subject of assay [24] is Escherichia coli KpC+001812446.
The subject of assay [25] is Pseudomonas aeruginosa 5018.
Assay [26] relates to Pseudomonas aeruginosa 3592.
For assay [27], the system named is Staphylococcus aureus CCARM 3709.
Assay [28] has as its system Escherichia coli CCARM 1229.
Assay [29] concerns Escherichia coli CCARM 1238.
In assay [30] the test system is Staphylococcus aureus CCARM 3114.
For assay [31], the system named is Pseudomonas aeruginosa ATCC 27853.
Assay [32] deals with Listeria monocytogenes KCTC 3710.
Assay [33] deals with Staphylococcus aureus ATCC 25923.
Assay [34] concerns Escherichia coli ATCC 25922.
For assay [35], the system named is Salmonella typhimurium CCARM 8009.
The subject of assay [36] is Salmonella typhimurium CCARM 8013.
Assay [37] concerns Staphylococcus aureus ATCC 9144.
Assay [38] relates to Klebsiella pneumoniae ATCC 700603.
Assay [39] has as its system Streptococcus pneumoniae ATCC 49619.
Assay [40] deals with Pseudomonas aeruginosa ATCC 9027.
Assay [41] concerns Enterococcus faecalis PCM 2673.
Assay [42] concerns Escherichia coli ATCC 23506.
Assay [43] relates to Candida glabrata ATCC 15126.
The subject of assay [44] is Candida albicans ATCC 10231.
Assay [45] deals with Aspergillus niger ATCC 16404.

SMILES strings stand for the structures. ≈ marks a conversion by molar mass, not a printed value.

Turning to `CC[C@H](C)[C@H](NC(=O)[C@H](CC(C)C)NC(=O)[C@H](CS)NC(=O)[C@H](Cc1cnc[nH]1)NC(=O)[C@H](C)NC(=O)[C@H](C)N)C(=O)NCC(=O)N[C@@H](CCCN=C(N)N)C(=O)N[C@@H](CCCCN)C(N)=O` [AAHCLIGRK], the MIC – broadly, the lowest concentration found to suppress growth – in [1] was found to be 15 µM; in [2], 30 µM; in assay [3] it was 7.5 µM; in assay [4], 7.5 µM; in assay [5] it was 15 µM; in assay [6], 15 µM. Also, the MIC in assay [7] stood at 30 µM; in assay [8] it was 30 µM; in assay [9] it was 15 µM; in assay [10], 7.5 µM; in assay [11], 15 µM.
With `CC[C@H](C)[C@H](NC(=O)[C@H](CCCCN)NC(=O)CNC(=O)[C@H](CC(C)C)NC(=O)[C@H](Cc1ccccc1)NC(=O)[C@H](CCC(N)=O)NC(=O)[C@H](Cc1ccccc1)NC(=O)[C@@H](NC(=O)[C@@H](NC(=O)[C@@H](NC(=O)[C@@H]1CCCN1C(=O)[C@H](CC(C)C)NC(=O)[C@@H](N)Cc1ccccc1)[C@@H](C)CC)[C@@H](C)CC)C(C)C)C(=O)N[C@H](C(=O)N[C@@H](Cc1cnc[nH]1)C(=O)N[C@@H](Cc1cnc[nH]1)C(=O)N[C@H](C(=O)NCC(=O)N[C@@H](CC(N)=O)C(=O)N[C@@H](Cc1ccccc1)C(=O)N[C@H](C(=O)N[C@@H](Cc1cnc[nH]1)C(=O)NCC(=O)N[C@@H](Cc1ccccc1)C(=O)N[C@@H](CO)C(=O)N[C@@H](Cc1cnc[nH]1)C(=O)N[C@H](C(=O)N[C@@H](Cc1ccccc1)C(N)=O)C(C)C)C(C)C)C(C)C)[C@@H](C)CC` [FLPIIVFQFLGKIIHHVGNFVHGFSHVF], the minimum inhibitory concentration (MIC) in assay [12] was determined as 1.5 µM (≈ 4.87 µg/mL); in assay [13] it was 6 µM (≈ 19.5 µg/mL); in [14] it was 6 µM (≈ 19.5 µg/mL); in assay [15], 1.5 µM (≈ 4.87 µg/mL); in assay [16], 3 µM (≈ 9.75 µg/mL); in assay [17], 3 µM (≈ 9.75 µg/mL). Also, the MIC in assay [18] turned out to be 12 µM (≈ 39 µg/mL); in [19], 3 µM (≈ 9.75 µg/mL); in assay [20] it was 24 µM (≈ 78 µg/mL); in assay [21], 6 µM (≈ 19.5 µg/mL); in [22] it was 6 µM (≈ 19.5 µg/mL); in [23], 3 µM (≈ 9.75 µg/mL). The molecule further gave an MIC in assay [24] of 6 µM (≈ 19.5 µg/mL).
`CC[C@H](C)[C@H](NC(=O)CN)C(=O)N[C@@H](Cc1cnc[nH]1)C(=O)N[C@@H](Cc1cnc[nH]1)C(=O)N[C@H](C(=O)N[C@@H](CC(C)C)C(=O)N[C@@H](CCCCN)C(=O)N[C@@H](Cc1ccc(O)cc1)C(=O)NCC(=O)N[C@@H](CCCCN)C(=O)N1CCC[C@H]1C(=O)N[C@@H](CO)C(=O)O)[C@@H](C)CC` [GIHHILKYGKPS]: the MIC in assay [25], in [26], in assay [27], in assay [28], in assay [29] and in assay [30] was at least 32 µM in each case. Further, the MIC is above 32 µM in assay [31]; at least 32 µM in [6]; at least 32 µM in assay [32]; above 32 µM in assay [33]; above 32 µM in assay [34]; at least 32 µM in [35]. For the same molecule, the MIC in assay [36] was at least 32 µM.
On to `CC[C@H](C)[C@H](NC(=O)CNC(=O)[C@H](C)NC(=O)[C@@H](NC(=O)[C@H](CC(C)C)NC(=O)[C@H](CCCCN)NC(=O)[C@@H](NC(=O)[C@@H](N)CC(C)C)C(C)C)C(C)C)C(=O)N[C@@H](CCCCN)C(=O)N[C@@H](CCCCN)C(=O)N[C@@H](Cc1ccccc1)C(=O)N[C@@H](CC(C)C)C(=O)N[C@@H](CCCCN)C(=O)N[C@@H](Cc1c[nH]c2ccccc12)C(=O)N[C@@H](CCCCN)C(N)=O` [LVKLVAGIKKFLKWK], for which the MIC in [37] is at least 36.1 µM; in [38], 1.13 µM (≈ 2 µg/mL); in assay [39], at least 72.3 µM; in assay [40], 4.52 µM (≈ 8 µg/mL); in assay [41], at least 36.1 µM; in assay [42], at least 36.1 µM. For the same molecule, the MIC in assay [33] is 72.3 µM (≈ 128 µg/mL); in assay [43] it was at least 145 µM; in assay [44], 145 µM (≈ 256 µg/mL); in [45], at least 145 µM; in assay [34], 72.3 µM (≈ 128 µg/mL).

The record behind these values is DBAASP.
